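1) Cells in 96-well plates. 2) Compound, 48 h, 5 concentrations. 3) Linear interpolation between surrounding doses. 4) Unreached endpoint = highest concentration. At the GI50, growth is halved. TGI marks complete inhibition of growth.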
Legend:
Assay in all cases: NCI-60 cell line screen, 48 h
[1] = tested on: HCT-116 colon
[2] = tested on: RPMI-8226 leukemia
[3] = tested on: OVCAR-4 ovarian
[4] = tested on: SF-295 CNS
[5] = tested on: BT-549 breast
[6] = tested on: HT29 colon
[7] = tested on: HCC-2998 colon
[8] = tested on: OVCAR-3 ovarian
[9] = tested on: HCT-15 colon
[10] = tested on: U251 CNS
[11] = tested on: RXF 393 renal
[12] = tested on: HOP-92 NSCLC
[13] = tested on: MDA-MB-435
[14] = tested on: A549 NSCLC
[15] = tested on: 786-0 renal
[16] = tested on: LOX IMVI melanoma
[17] = tested on: SR leukemia
[18] = tested on: EKVX NSCLC
[19] = tested on: UO-31 renal
[20] = tested on: DU-145 prostate
[21] = tested on: TK-10 renal
[22] = tested on: NCI-H226 lung
[23] = tested on: HS 578T breast
[24] = tested on: KM12 colon
[25] = tested on: MALME-3M melanoma
[26] = tested on: UACC-257 melanoma
[27] = tested on: NCI-H460 lung
[28] = tested on: K-562 leukemia
[29] = tested on: A498 renal
[30] = tested on: PC-3 prostate
[31] = tested on: HL-60(TB) leukemia
[32] = tested on: SNB-19 CNS
[33] = tested on: NCI-H522 lung
[34] = tested on: NCI/ADR-RES ovarian
[35] = tested on: SW-620 colon
[36] = tested on: MCF7 breast
[37] = tested on: SNB-75 CNS
[38] = tested on: SK-MEL-28 melanoma
[39] = tested on: UACC-62 melanoma
[40] = tested on: SK-OV-3 ovarian
[41] = tested on: CAKI-1 renal
[42] = tested on: SN12C renal
[43] = tested on: ACHN renal
[44] = tested on: OVCAR-5 ovarian
[45] = tested on: SK-MEL-2 melanoma
[46] = tested on: MDA-MB-231 breast
[47] = tested on: HOP-62 NSCLC
[48] = tested on: T-47D breast
[49] = tested on: CCRF-CEM leukemia
[50] = tested on: SF-539 CNS
[51] = tested on: COLO 205 colon
[52] = tested on: SF-268 CNS
[53] = tested on: MOLT-4 leukemia
[54] = tested on: SK-MEL-5 melanoma
[55] = tested on: IGROV1 ovarian
[56] = tested on: NCI-H23 lung
[57] = tested on: OVCAR-8 ovarian
[58] = tested on: M14 melanoma

CN(C)S(=O)(=O)c1ccc(NC(=O)COC(=O)c2ccc(S(=O)(=O)N3CCCCC3)cc2)cc1
GI50 [1]: > 100 µM
TGI [1]: > 100 µM
GI50 [2]: > 100 µM
TGI [2]: > 100 µM
GI50 [3]: > 100 µM
TGI [3]: > 100 µM
GI50 [4]: > 100 µM
TGI [4]: > 100 µM
GI50 [5]: > 100 µM
TGI [5]: > 100 µM
GI50 [6]: > 100 µM
TGI [6]: > 100 µM
GI50 [7]: > 100 µM
TGI [7]: > 100 µM
GI50 [8]: > 100 µM
TGI [8]: > 100 µM
GI50 [9]: > 100 µM
TGI [9]: > 100 µM
GI50 [10]: > 100 µM
TGI [10]: > 100 µM
GI50 [11]: > 100 µM
TGI [11]: > 100 µM
GI50 [12]: > 100 µM
TGI [12]: > 100 µM
GI50 [13]: > 100 µM
TGI [13]: > 100 µM
GI50 [14]: > 100 µM
TGI [14]: > 100 µM
GI50 [15]: > 100 µM
TGI [15]: > 100 µM
GI50 [16]: > 100 µM
TGI [16]: > 100 µM
GI50 [17]: > 100 µM
TGI [17]: > 100 µM
GI50 [18]: > 100 µM
TGI [18]: > 100 µM
GI50 [19]: > 100 µM
TGI [19]: > 100 µM
GI50 [20]: > 100 µM
TGI [20]: > 100 µM
GI50 [21]: > 100 µM
TGI [21]: > 100 µM
GI50 [22]: > 100 µM
TGI [22]: > 100 µM
GI50 [23]: > 100 µM
TGI [23]: > 100 µM
GI50 [24]: > 100 µM
TGI [24]: > 100 µM
GI50 [25]: > 100 µM
TGI [25]: > 100 µM
GI50 [26]: > 100 µM
TGI [26]: > 100 µM
GI50 [27]: > 100 µM
TGI [27]: > 100 µM
GI50 [28]: > 100 µM
TGI [28]: > 100 µM
GI50 [29]: > 100 µM
TGI [29]: > 100 µM
GI50 [30]: > 100 µM
TGI [30]: > 100 µM
GI50 [31]: > 100 µM
TGI [31]: > 100 µM
GI50 [32]: > 100 µM
TGI [32]: > 100 µM
GI50 [33]: > 100 µM
TGI [33]: > 100 µM
GI50 [34]: > 100 µM
TGI [34]: > 100 µM
GI50 [35]: > 100 µM
TGI [35]: > 100 µM
GI50 [36]: > 100 µM
TGI [36]: > 100 µM
GI50 [37]: > 100 µM
TGI [37]: > 100 µM
GI50 [38]: > 100 µM
TGI [38]: > 100 µM
GI50 [39]: > 100 µM
TGI [39]: > 100 µM
GI50 [40]: > 100 µM
TGI [40]: > 100 µM
GI50 [41]: > 100 µM
TGI [41]: > 100 µM
GI50 [42]: > 100 µM
TGI [42]: > 100 µM
GI50 [43]: > 100 µM
TGI [43]: > 100 µM
GI50 [44]: > 100 µM
TGI [44]: > 100 µM
GI50 [45]: > 100 µM
TGI [45]: > 100 µM
GI50 [46]: > 100 µM
TGI [46]: > 100 µM
GI50 [47]: > 100 µM
TGI [47]: > 100 µM
GI50 [48]: > 100 µM
TGI [48]: > 100 µM
GI50 [49]: > 100 µM
TGI [49]: > 100 µM
GI50 [50]: > 100 µM
TGI [50]: > 100 µM
GI50 [51]: > 100 µM
TGI [51]: > 100 µM
GI50 [52]: > 100 µM
TGI [52]: > 100 µM
GI50 [53]: > 100 µM
TGI [53]: > 100 µM
GI50 [54]: > 100 µM
TGI [54]: > 100 µM
GI50 [55]: > 100 µM
TGI [55]: > 100 µM
GI50 [56]: > 100 µM
TGI [56]: > 100 µM

C[C@@H](C(=O)Nc1ccc(Cl)cc1)C1CCC(c2ccnc3ccc(F)cc23)CC1 (stereo partly drawn)
GI50 [1]: 3.13 µM
TGI [1]: 21.6 µM
GI50 [2]: 2.85 µM
TGI [2]: 13.9 µM
GI50 [3]: 5.93 µM
TGI [3]: > 100 µM
GI50 [4]: 8.12 µM
TGI [4]: > 100 µM
GI50 [5]: 3.72 µM
TGI [5]: 22.8 µM
GI50 [6]: 5.81 µM
TGI [6]: 40.4 µM
GI50 [7]: 4.35 µM
TGI [7]: 24.3 µM
GI50 [8]: 11.9 µM
TGI [8]: 63.1 µM
GI50 [9]: 8.32 µM
TGI [9]: > 100 µM
GI50 [10]: 20 µM
TGI [10]: > 100 µM
GI50 [11]: 3.6 µM
TGI [11]: 26.7 µM
GI50 [12]: 2.85 µM
TGI [12]: 9.15 µM
GI50 [13]: 9.08 µM
TGI [13]: 54.9 µM
GI50 [14]: 9.9 µM
TGI [14]: > 100 µM
GI50 [15]: 4.31 µM
TGI [15]: > 100 µM
GI50 [16]: 5.85 µM
TGI [16]: 21.3 µM
GI50 [17]: 2.23 µM
TGI [17]: 12.1 µM
GI50 [18]: 4.54 µM
TGI [18]: 61.6 µM
GI50 [57]: 21 µM
TGI [57]: > 100 µM
GI50 [19]: 3.94 µM
TGI [19]: > 100 µM
GI50 [20]: 12.6 µM
TGI [20]: > 100 µM
GI50 [21]: 6.04 µM
TGI [21]: 81.3 µM
GI50 [22]: 13.7 µM
TGI [22]: > 100 µM
GI50 [23]: 9.3 µM
TGI [23]: 68.5 µM
GI50 [24]: 6.01 µM
TGI [24]: 34.9 µM
GI50 [25]: 9.83 µM
TGI [25]: 60 µM
GI50 [26]: 13.3 µM
TGI [26]: 53.7 µM
GI50 [27]: 4.3 µM
TGI [27]: 45.5 µM
GI50 [28]: 5.1 µM
TGI [28]: 67.4 µM
GI50 [29]: 6.27 µM
TGI [29]: 56.8 µM
GI50 [30]: 3.43 µM
TGI [30]: > 100 µM
GI50 [31]: 5.22 µM
TGI [31]: 24.7 µM
GI50 [32]: 10.8 µM
TGI [32]: > 100 µM
GI50 [33]: 10.7 µM
TGI [33]: 70.5 µM
GI50 [34]: 10.1 µM
TGI [34]: 48 µM
GI50 [35]: 19 µM
TGI [35]: > 100 µM
GI50 [36]: 4.4 µM
TGI [36]: 97.5 µM
GI50 [37]: 12.5 µM
TGI [37]: 92.3 µM
GI50 [38]: 10.4 µM
TGI [38]: > 100 µM
GI50 [39]: 10.3 µM
TGI [39]: 47.2 µM
GI50 [40]: 15.3 µM
TGI [40]: 73.8 µM
GI50 [41]: 6.23 µM
TGI [41]: > 100 µM
GI50 [42]: 8.23 µM
TGI [42]: 44.4 µM
GI50 [43]: 4.61 µM
TGI [43]: > 100 µM
GI50 [44]: 17.8 µM
TGI [44]: > 100 µM
GI50 [45]: 9.81 µM
TGI [45]: 29.8 µM
GI50 [46]: 7.83 µM
TGI [46]: 48 µM
GI50 [47]: 19.4 µM
TGI [47]: > 100 µM
GI50 [48]: 3.36 µM
TGI [48]: 46.1 µM
GI50 [49]: 3.43 µM
TGI [49]: > 100 µM
GI50 [50]: 11.8 µM
TGI [50]: 47.7 µM
GI50 [51]: 8.8 µM
TGI [51]: 34 µM
GI50 [52]: 8.55 µM
TGI [52]: 60.9 µM
GI50 [53]: 4.16 µM
TGI [53]: > 100 µM
GI50 [54]: 3.22 µM
TGI [54]: 11.8 µM
GI50 [55]: 9.11 µM
TGI [55]: > 100 µM
GI50 [56]: 3.93 µM
TGI [56]: 56.4 µM
GI50 [58]: 7.12 µM
TGI [58]: > 100 µM

Reference: PubChem BioAssay (NCI)
